Source: patent US20240368150A1 (Hoffmann-La Roche Inc., priority 2021, published 2024)
Like-named read-outs stand apart in the source and are kept apart here.

Tests used:
primary human T-cells [1] = assay: Proliferation assay after 5 days (CellTiter-Glo, CD3 stimulation; PBS counter screen); format: cell-based; conditions: Homo sapiens, T-cell, 120 h, CD3 stimulation; for Emax: 5 days, normalized to reference compound A1 as stimulator control = 100%, DMSO neutral control, read-out: Emax proliferation (% activation); for EC50: primary human T-cells, CellTiter-Glo after 5 days, EC50 of fitted sigmoidal curve, read-out: Tcell Proliferation CD3 EC50
How it was run: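 ATP-based luminescence (CellTiter-Glo 2.0, room temperature) measured proliferation 5 days after compound addition to CD3-stimulated or unstimulated primary human T-cells. Flags marked compounds that lowered viability or activated unstimulated cells.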

primary human T-cells [2] = test system: primary human T-cells

Structure (SMILES)	Emax (primary human T-cells [1]) [%]	EC50 (primary human T-cells [1]) [nM]	EC50 (primary human T-cells [2]) [nM]
CC(C)(C)n1ccc(-c2cc3c(cc2F)S(=O)(=O)C[C@H](N)C(=O)N3Cc2ccc(Cl)cc2)n1 [Example 287, (3R)-3-amino-7-(1-tert-butylpyrazol-3-yl)-5-[(4-chlorophenyl)methyl]-8-fluoro-1,1-dioxo-2,3-dihydro-1λ^6,5-benzothiazepin-4-one]	66	2210	19300
N[C@H]1CS(=O)(=O)c2cc(F)c(-c3nc4n(n3)CCNC4C(F)(F)F)cc2N(Cc2ccc(OC(F)(F)F)cc2)C1=O (stereo partly drawn) [Example 288, (3R)-3-amino-8-fluoro-1,1-dioxo-5-[[4-(trifluoromethoxy)phenyl]methyl]-7-[8-(trifluoromethyl)-5,6,7,8-tetrahydro-[1,2,4]triazolo[1,5-a]pyrazin-2-yl]-2,3-dihydro-1λ^6,5-benzothiazepin-4-one]	71	4310	> 10000
N[C@H]1CS(=O)(=O)c2cc(F)c(-c3noc(C(=O)NCC(F)(F)F)n3)cc2N(Cc2ccc(Cl)cc2)C1=O [Example 291, 3-[(3R)-3-amino-5-[(4-chlorophenyl)methyl]-8-fluoro-1,1,4-trioxo-2,3-dihydro-1λ^6,5-benzothiazepin-7-yl]-N-(2,2,2-trifluoroethyl)-1,2,4-oxadiazole-5-carboxamide]	104	446	1700
N[C@H]1CS(=O)(=O)c2cc(F)c(-c3noc(C(N)(C4CCOCC4)C(F)(F)F)n3)cc2N(Cc2ccc(Cl)cc2)C1=O (stereo partly drawn) [Example 294, (3R)-3-amino-7-[5-(1-amino-2,2,2-trifluoro-1-tetrahydropyran-4-yl-ethyl)-1,2,4-oxadiazol-3-yl]-5-[(4-chlorophenyl)methyl]-8-fluoro-1,1-dioxo-2,3-dihydro-1λ^6,5-benzothiazepin-4-one]	143	261	374
CC(F)(F)CNC(=O)c1nc(-c2cc3c(cc2F)S(=O)(=O)C[C@H](N)C(=O)N3Cc2ccc(Cl)cc2)no1 [Example 295, 3-[(3R)-3-amino-5-[(4-chlorophenyl)methyl]-8-fluoro-1,1,4-trioxo-2,3-dihydro-1λ^6,5-benzothiazepin-7-yl]-N-(2,2-difluoropropyl)-1,2,4-oxadiazole-5-carboxamide]	97	1390	885
N[C@H]1CS(=O)(=O)c2cc(F)c(-c3noc(C(F)C(F)(F)F)n3)cc2N(Cc2ccc(Cl)cc2)C1=O (stereo partly drawn) [Example 296, (3R)-3-amino-5-[(4-chlorophenyl)methyl]-8-fluoro-1,1-dioxo-7-[5-(1,2,2,2-tetrafluoroethyl)-1,2,4-oxadiazol-3-yl]-2,3-dihydro-1λ^6,5-benzothiazepin-4-one]	66	687	710
CN(C)C(=O)c1nc(-c2cc3c(cc2F)S(=O)(=O)C[C@H](N)C(=O)N3Cc2ccc(Cl)cc2)no1 [Example 299, 3-[(3R)-3-amino-5-[(4-chlorophenyl)methyl]-8-fluoro-1,1,4-trioxo-2,3-dihydro-1λ^6,5-benzothiazepin-7-yl]-N,N-dimethyl-1,2,4-oxadiazole-5-carboxamide]	111	5010	2500
CC(O)(CNC(=O)c1nc(-c2cc3c(cc2F)S(=O)(=O)C[C@H](N)C(=O)N3Cc2ccc(Cl)cc2)no1)C(F)(F)F (stereo partly drawn) [Example 301, 3-[(3R)-3-amino-5-[(4-chlorophenyl)methyl]-8-fluoro-1,1,4-trioxo-2,3-dihydro-1λ^6,5-benzothiazepin-7-yl]-N-(3,3,3-trifluoro-2-hydroxy-2-methyl-propyl)-1,2,4-oxadiazole-5-carboxamide]	93	2440	6140
CC1(C)CNCC(c2nc(-c3cc4c(cc3F)S(=O)(=O)C[C@H](N)C(=O)N4Cc3ccc(Cl)cc3)no2)C1 (stereo partly drawn) [Example 302, (3R)-3-amino-5-[(4-chlorophenyl)methyl]-7-[5-(5,5-dimethyl-3-piperidyl)-1,2,4-oxadiazol-3-yl]-8-fluoro-1,1-dioxo-2,3-dihydro-1λ^6,5-benzothiazepin-4-one]	76	990	> 10000
CNC(=O)N1CCC(C)(c2nc(-c3cc4c(cc3F)S(=O)(=O)C[C@H](N)C(=O)N4Cc3ccc(Cl)cc3)no2)CC1 [Example 304, 4-[3-[(3R)-3-amino-5-[(4-chlorophenyl)methyl]-8-fluoro-1,1,4-trioxo-2,3-dihydro-1λ^6,5-benzothiazepin-7-yl]-1,2,4-oxadiazol-5-yl]-N,4-dimethyl-piperidine-1-carboxamide]	61	7490	8140
CC1(c2nc(-c3cc4c(cc3F)S(=O)(=O)C[C@H](N)C(=O)N4Cc3ccc(Cl)cc3)no2)CCN(C(=O)N2CCCC2)CC1 [Example 305, (3R)-3-amino-5-[(4-chlorophenyl)methyl]-8-fluoro-7-[5-[4-methyl-1-(pyrrolidine-1-carbonyl)-4-piperidyl]-1,2,4-oxadiazol-3-yl]-1,1-dioxo-2,3-dihydro-1λ^6,5-benzothiazepin-4-one]	84	720	1810
CCN1CCC(C)(c2nc(-c3cc4c(cc3F)S(=O)(=O)C[C@H](N)C(=O)N4Cc3ccc(Cl)cc3)no2)CC1 [Example 306, (3R)-3-amino-5-[(4-chlorophenyl)methyl]-7-[5-(1-ethyl-4-methyl-4-piperidyl)-1,2,4-oxadiazol-3-yl]-8-fluoro-1,1-dioxo-2,3-dihydro-1λ^6,5-benzothiazepin-4-one]	79	3480	571
CC1(c2nc(-c3cc4c(cc3F)[S+]([O-])C[C@H](N)C(=O)N4Cc3ccc(Cl)cc3)no2)CC[N+]([O-])(CC(F)(F)F)CC1 (stereo partly drawn) [Example 308, (3R)-3-amino-5-[(4-chlorophenyl)methyl]-8-fluoro-7-[5-[4-methyl-1-oxido-1-(2,2,2-trifluoroethyl)piperidin-1-ium-4-yl]-1,2,4-oxadiazol-3-yl]-1-oxo-2,3-dihydro-1λ^4,5-benzothiazepin-4-one]	61	7630	> 10000
CC1(c2nc(-c3cc4c(cc3F)S(=O)(=O)C[C@H](N)C(=O)N4Cc3ccc(Cl)cc3)no2)CCN(CC(F)(F)F)CC1 [Example 309, (3R)-3-amino-5-[(4-chlorophenyl)methyl]-8-fluoro-7-[5-[4-methyl-1-(2,2,2-trifluoroethyl)-4-piperidyl]-1,2,4-oxadiazol-3-yl]-1,1-dioxo-2,3-dihydro-1λ^6,5-benzothiazepin-4-one]	202		443
Cc1ccncc1-c1nc(-c2cc3c(cc2F)S(=O)(=O)C[C@H](N)C(=O)N3Cc2ccc(Cl)cc2)no1 [Example 310, (3R)-3-amino-5-[(4-chlorophenyl)methyl]-8-fluoro-7-[5-(4-methyl-3-pyridyl)-1,2,4-oxadiazol-3-yl]-1,1-dioxo-2,3-dihydro-1λ^6,5-benzothiazepin-4-one]	90	2710	3240
Cc1nc(F)ccc1-c1nc(-c2cc3c(cc2F)S(=O)(=O)C[C@H](N)C(=O)N3Cc2ccc(Cl)cc2)no1 [Example 312, (3R)-3-amino-5-[(4-chlorophenyl)methyl]-8-fluoro-7-[5-(6-fluoro-2-methyl-3-pyridyl)-1,2,4-oxadiazol-3-yl]-1,1-dioxo-2,3-dihydro-1λ^6,5-benzothiazepin-4-one]	163	80.6	226
CCOC(=O)N1CC2CC(c3nc(-c4cc5c(cc4F)S(=O)(=O)C[C@H](N)C(=O)N5Cc4ccc(Cl)cc4)no3)(C2)C1 [Example 315, ethyl 1-[3-[(3R)-3-amino-5-[(4-chlorophenyl)methyl]-8-fluoro-1,1,4-trioxo-2,3-dihydro-1λ^6,5-benzothiazepin-7-yl]-1,2,4-oxadiazol-5-yl]-3-azabicyclo[3.1.1]heptane-3-carboxylate]	131		1030
CC(C)OC(=O)N1CC2CC(c3nc(-c4cc5c(cc4F)S(=O)(=O)C[C@H](N)C(=O)N5Cc4ccc(Cl)cc4)no3)(C2)C1 [Example 316, isopropyl 1-[3-[(3R)-3-amino-5-[(4-chlorophenyl)methyl]-8-fluoro-1,1,4-trioxo-2,3-dihydro-1λ^6,5-benzothiazepin-7-yl]-1,2,4-oxadiazol-5-yl]-3-azabicyclo[3.1.1]heptane-3-carboxylate]	112		679
COC(=O)N1CC2CC(c3nc(-c4cc5c(cc4F)S(=O)(=O)C[C@H](N)C(=O)N5Cc4ccc(Cl)cc4)no3)(C2)C1 [Example 317, methyl 1-[3-[(3R)-3-amino-5-[(4-chlorophenyl)methyl]-8-fluoro-1,1,4-trioxo-2,3-dihydro-1λ^6,5-benzothiazepin-7-yl]-1,2,4-oxadiazol-5-yl]-3-azabicyclo[3.1.1]heptane-3-carboxylate]	142		2230
N[C@H]1CS(=O)(=O)c2cc(F)c(-c3noc(C4(C(F)(F)F)CC4)n3)cc2N(Cc2ccc(Cl)cc2)C1=O [Example 318, (3R)-3-amino-5-[(4-chlorophenyl)methyl]-8-fluoro-1,1-dioxo-7-[5-[1-(trifluoromethyl)cyclopropyl]-1,2,4-oxadiazol-3-yl]-2,3-dihydro-1λ^6,5-benzothiazepin-4-one]	140	255	550
CC(O)(c1nc(-c2cc3c(cc2F)S(=O)(=O)C[C@H](N)C(=O)N3Cc2ccc(Cl)cc2)no1)C(F)(F)F (stereo partly drawn) [Example 319, (3R)-3-amino-5-[(4-chlorophenyl)methyl]-8-fluoro-1,1-dioxo-7-[5-(2,2,2-trifluoro-1-hydroxy-1-methyl-ethyl)-1,2,4-oxadiazol-3-yl]-2,3-dihydro-1λ^6,5-benzothiazepin-4-one]	113	244	458
